From the PolyMetriX glass transition set
± gives the standard deviation of the reports.

SMILES	glass transition temperature [°C]
*CC(*)c1ccc(O)c(OC)c1 (repeat unit)	142.00
*Oc1ccc(S(=O)(=O)c2ccc(Oc3ccc(-c4ccc(-c5ccc(*)c(C(F)(F)F)c5)cc4)cc3C(F)(F)F)cc2)cc1 (repeat unit)	214.00
*O[Si](C)(Oc1ccc(*)cc1)c1ccccc1 (repeat unit)	95.00
*/C=C(\C#N)c1cccc(/C(C#N)=C/c2ccc(/C=C/c3ccc(N(c4ccccc4)c4ccc(N(c5ccccc5)c5ccc(/C=C/c6ccc(*)s6)cc5)cc4)cc3)s2)c1 (repeat unit)	178.00
*=Nc1cccc(S(=O)(=O)c2cccc(/N=C3/OC(=O)c4ccc(Oc5ccc6c(c5)C(=O)OC6=*)cc43)c2)c1 (repeat unit)	190.00
*Nc1ccc(-c2ccc(NC(=O)Cc3cc(C)c(CC(*)=O)cc3C)cc2)cc1 (repeat unit)	171.00
*CCCOC(=O)CCC(=O)O* (repeat unit)	-34.70
*CCCCCCCOC(=O)c1ccc(C(=O)O*)cc1 (repeat unit)	-1.00
*c1ccc2c(c1)C(=O)N(c1ccc(C(=O)Nc3ccc(C(c4ccc(NC(=O)c5ccc(N6C(=O)c7ccc(C(*)(C(F)(F)F)C(F)(F)F)cc7C6=O)c(C)c5)cc4)(C(F)(F)F)C(F)(F)F)cc3)cc1C)C2=O (repeat unit)	344.00
*Oc1ccc(OC(=O)/C=C/c2ccc(/C=C/C(*)=O)cc2)cc1 (repeat unit)	210.00
*Nc1ccc(NC(=O)c2ccc(NC(=O)CCCCCCCCC(=O)Nc3ccc(C(*)=O)cc3)cc2)cc1C(=O)OCCCCCCCCCCCC (repeat unit)	228.50
*CC(*)(C)C(=O)OCCCCCCOc1ccc(/N=N/c2ccc(OCCCCCCCCCC)cc2)cc1 (repeat unit)	110.00
*c1ccc(Oc2ccc(C(c3ccc(Oc4ccc(N5C(=O)c6ccc7c8c(ccc(c68)C5=O)C(=O)N(*)C7=O)cc4)cc3)(C(F)(F)F)C(F)(F)F)cc2)cc1 (repeat unit)	280.00
*Oc1ccc(-c2ccc(OC3(F)C(*)(F)C(F)(F)C3(F)F)cc2)cc1 (repeat unit)	161.00
*CC(O)COc1ccc(C(C)(C)c2ccc(OCC(O)COc3ccc(NC(=O)CCCC(=O)Nc4ccc(O*)cc4)cc3)cc2)cc1 (repeat unit)	105.00
*CC(*)(C)C(=O)OCCCCCCCCCCn1c2ccccc2c2cc(/C=C(\C#N)C(=O)OC)ccc21 (repeat unit)	58.00
*NC1CCC(CCC2CCC(NC(=O)CCCCCCCCCCC(*)=O)CC2)CC1 (repeat unit)	105.00
*CC(F)(F)C(F)(F)C(F)(F)COC(=O)c1cccc(C(=O)O*)c1 (repeat unit)	23.50
*CCCCCCCCOC(=O)c1cccc(C(=O)O*)c1 (repeat unit)	-9.00
*c1ccc(-c2cnc3ccc(S(=O)(=O)c4ccc5ncc(*)nc5c4)cc3n2)cc1 (repeat unit)	342.00
*CC(C)O* (repeat unit) [Poly(propylene glycol)]	-69.18 ± 2.6
*CC(*)(Cl)C(=O)OC (repeat unit)	125.00

SMILES	glass transition temperature [°C]
*Oc1cccc(Oc2cccc(NC(=O)c3cc(Oc4ccc(C(=O)O)c(C(=O)Nc5cccc(*)c5)c4)ccc3C(=O)O)c2)c1C#N (repeat unit)	200.10
*=Cc1ccc(/C=N/c2c(-c3ccccc3)cc(-c3ccc(-c4cc(-c5ccccc5)c(N=*)c(-c5ccccc5)c4)cc3)cc2-c2ccccc2)cc1 (repeat unit)	300.00
*CC(C)(C)C1C(=O)N(c2c(C)cccc2C)C(=O)C1* (repeat unit)	237.00
*c1ccc(C(C#N)(C(=O)OCC)C(*)(C#N)C(=O)OCC)cc1 (repeat unit)	108.00
*c1ccc(-c2nnc(*)o2)c(OCCCCCCCCCC)c1 (repeat unit)	165.00
*CCOC(=O)Nc1ccc(Cc2ccc(NC(=O)O*)cc2)cc1 (repeat unit)	139.00
*CC(*)(C)C(=O)OCCCCCCCCOc1ccc(/N=N/c2ccc(C3OCC4(CO3)CC3C=CC4C3)cc2)cc1 (repeat unit)	106.20
*CC(COC(=O)O*)OCCCCOc1ccc(/C=C/c2ccc([N+](=O)[O-])cc2)cc1 (repeat unit)	42.00
*CCCCCCCCCCOc1c(OC)cc(/C=C2\CCC/C(=C\c3cc(OC)c(O*)c(OC)c3)C2=O)cc1OC (repeat unit)	49.00
*c1ccc(-c2nc3ccc(-c4ccc5nc(*)c(-c6ccccc6)nc5c4)cc3nc2-c2ccccc2)cc1 (repeat unit)	354.50
*OCC(F)(F)C(F)(F)C(F)(F)COc1nc(F)nc(*)c1F (repeat unit)	0.00
*c1ccc(Oc2ccc(Oc3ccc(Oc4ccc(-c5cnc6ccc(-c7ccc8ncc(*)nc8c7)cc6n5)cc4)cc3)cc2)cc1 (repeat unit)	216.00
*/C=C(/c1ccc(*)cc1)c1ccc(C(F)(F)F)cc1 (repeat unit)	199.00
*Oc1ccc(S(=O)(=O)c2ccc(Oc3ccc(-c4ccc(*)cc4)cc3)cc2N)c(N)c1 (repeat unit)	242.20
*Oc1ccc(OC(=O)c2ccc(C(*)=O)cc2)cc1C(F)(F)F (repeat unit)	159.30
*Oc1ccc(NC(=O)CCCCCCCC(=O)Nc2ccc(*)cc2)cc1 (repeat unit)	160.00
*CCC[Si](*)(C)O[Si](C)(C)CCCOc1ccc(C#N)cc1 (repeat unit)	-45.50
*CC(*)(CC(=O)Oc1ccc(OCCCCCCC)cc1)C(=O)Oc1ccc(OCCCCCCC)cc1 (repeat unit)	111.00
*c1ccc(-c2ccc(-c3nc4ccc(-c5ccc6nc(*)c(-c7ccccc7)nc6c5)cc4nc3-c3ccccc3)cc2)cc1 (repeat unit)	404.00
*CCCCCCCCOc1c(OC)cc(/C=C/c2ccc(/C=C/c3ccc(/C=C/c4cc(OC)c(O*)c(OC)c4)cc3)cc2)cc1OC (repeat unit)	78.70
*c1ccc2c(c1)C(=O)N(c1c(C)cc(Cc3cc(C)c(N4C(=O)c5ccc(C(*)(C(F)(F)F)C(F)(F)F)cc5C4=O)c(C)c3)cc1C)C2=O (repeat unit)	307.50
*CC(*)C(=O)NC(C)(C)C (repeat unit) [Poly(N-tert-butyl acrylamide)]	131.42 ± 5.1

SMILES	glass transition temperature [°C]
*c1ccc2c(c1)C(=O)N(c1ccc(Cc3ccc(N4C(=O)c5ccc(C(*)(C(F)(F)F)C(F)(F)F)cc5C4=O)cc3)cc1)C2=O (repeat unit)	297.00
*Oc1ccc(C2(c3ccc(OC(*)=S)cc3)CCCC2)cc1 (repeat unit)	79.00
*c1ccc(Oc2ccc(C(=O)c3ccc(Oc4ccc(-c5nc6ccccc6n5-c5ccc(-n6c(*)nc7ccccc76)cc5)cc4)cc3)cc2)cc1 (repeat unit)	242.00
*C(=O)Nc1ccc(C2(c3ccc(NC(=O)c4ccc5c(c4)C(=O)N(c4ccc(Sc6ccc(Oc7ccc(Sc8ccc(N9C(=O)c%10ccc(*)cc%10C9=O)cc8)cc7)cc6)cc4)C5=O)cc3)c3ccccc3-c3ccccc32)cc1 (repeat unit)	298.00
*C(=O)Nc1cccc(C(=O)Nc2cccc(NC(=O)c3ccc4[nH]c(-c5ccc(-c6nc7cc(*)ccc7[nH]6)cc5)nc4c3)c2)c1 (repeat unit)	312.00
*OC1C(COC(=O)Nc2ccccc2)OC(*)C(OC(=O)Nc2ccccc2)C1OC(=O)Nc1ccccc1 (repeat unit)	217.00
*Oc1ccc(-c2ccc(Oc3ccc(-c4ccc(-c5ccc(*)c(C(F)(F)F)c5)cc4)cc3C(F)(F)F)cc2)cc1 (repeat unit)	203.50
*c1ccc(Oc2ccc(C(c3ccc(Oc4ccc(-c5nnc(*)n5-c5ccc(C)cc5)cc4)cc3)(C(F)(F)F)C(F)(F)F)cc2)cc1 (repeat unit)	213.00
*CC(*)C(=O)c1ccc(OC)cc1 (repeat unit)	46.00
*C(=O)Oc1ccc(OCCCCCCCCCCCCOc2ccc(OC(=O)c3ccc4c(c3)C(=O)N(c3ccc(Cc5ccc(N6C(=O)c7ccc(*)cc7C6=O)cc5)cc3)C4=O)cc2)cc1 (repeat unit)	125.00
*Oc1ccc(S(=O)(=O)c2ccc(Oc3ccc(NC(=O)c4ccc(Oc5ccc(C(C)(C)c6ccc(C(C)(C)c7ccc(Oc8ccc(C(=O)Nc9ccc(*)cc9)cc8)cc7)cc6)cc5)cc4)cc3)cc2)cc1 (repeat unit)	177.00
*CCCCCCCCOC(=O)c1ccc(C(=O)O*)cc1 (repeat unit)	45.00
*O[Si](C)(C)O[Si](C)(C)O[Si](C)(C)O[Si](C)(C)O[Si](C)(C)c1ccc([Si](*)(C)C)cc1 (repeat unit)	-80.00
*Oc1ccc(NC(=O)c2ccc(-c3ccc(C(=O)Nc4ccc(Oc5ccc(C6(c7ccc(*)cc7)CC7CCC6C7)cc5)cc4)cc3)cc2)cc1 (repeat unit)	296.00
*CC(*)C(=O)OCC(F)(F)C(F)(F)C(F)(F)C(F)F (repeat unit)	-35.00
*c1cccc(P(=O)(c2ccccc2)c2cccc(-n3c(=O)c4cc5c(=O)n(*)c(=O)c5cc4c3=O)c2)c1 (repeat unit)	331.00
*CCCC(=O)Nc1ccc(NC(=O)CCCN2C(=O)c3ccc(C(=O)c4ccc5c(c4)C(=O)N(*)C5=O)cc3C2=O)cc1 (repeat unit)	209.00
*c1ccc(Oc2ccc(Oc3ccc(Oc4ccc(-c5nc6ccc(-c7ccc8nc(*)c(-c9ccccc9)nc8c7)cc6nc5-c5ccccc5)cc4)cc3)cc2)cc1 (repeat unit)	263.00
*c1ccc2c(c1)C(=O)N(c1ccccc1Oc1ccc(N3C(=O)c4ccc(C(*)(C(F)(F)F)C(F)(F)F)cc4C3=O)cc1)C2=O (repeat unit)	276.00
*CC(CCl)(CCl)CO* (repeat unit) [Poly(oxy-2,2-dichloromethyltrimethylene) ]	-8 ± 10
